US12252524B2, “GIP/GLP1 co-agonist compounds” (Eli Lilly and Company, priority 2018, dated 2025)
Numbered stars: 1 amine (or outer) side, 2 acyl side, 3 side chain; on linkers, the order of the positions; unused ones are H or OH. Square brackets hold non-standard residues; d marks the D form. Side chains are listed from the residue outwards. Peptide text beside a SMILES is read from it. * marks the point of attachment. C20 diacid = O=C(O)CCCCCCCCCCCCCCCCCCC(=O)*; C18 diacid = O=C(O)CCCCCCCCCCCCCCCCC(=O)*; αMePhe(2-F) = C[C@](N)(Cc1ccccc1F)C(=O)O; γGlu = O=C(O)[C@H](CCC(=O)[*:2])N[*:1]; 4Pal = N[C@@H](Cc1ccncc1)C(=O)O; αMeL = CC(C)C[C@](C)(N)C(=O)O; AEEA = NCCOCCOCC(=O)O; Aib = CC(C)(N)C(=O)O

How the values were obtained:
[1] = molecular target: T1, human Gcg receptor (Homo sapiens, UniProt P47871); experiment: [125I]-Glucagon binding (SPA), human Gcg receptor; settings: read-out: hGLcgR Ki, nM (SEM, n)
T1 construct: expressed in transfected cells; crude membranes
T1 sequence (P47871 26-477): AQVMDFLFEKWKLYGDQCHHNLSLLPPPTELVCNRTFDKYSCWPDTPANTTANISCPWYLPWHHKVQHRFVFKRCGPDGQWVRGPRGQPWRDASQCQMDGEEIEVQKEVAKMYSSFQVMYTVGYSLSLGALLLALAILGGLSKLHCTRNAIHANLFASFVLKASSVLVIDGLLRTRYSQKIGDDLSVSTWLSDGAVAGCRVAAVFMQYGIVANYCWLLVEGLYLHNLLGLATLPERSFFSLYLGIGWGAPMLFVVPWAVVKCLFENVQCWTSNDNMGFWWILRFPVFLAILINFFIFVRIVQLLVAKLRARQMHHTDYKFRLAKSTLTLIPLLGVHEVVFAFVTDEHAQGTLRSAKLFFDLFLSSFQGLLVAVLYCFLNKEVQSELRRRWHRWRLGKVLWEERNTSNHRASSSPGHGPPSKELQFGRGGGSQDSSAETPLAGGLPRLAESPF
Procedure: (§1) Two methods are used for the preparation of crude cell membranes.
(§2) Method 1: Frozen cell pellets are lysed on ice in hypotonic buffer containing 50 mM Tris HCl, pH 7.5, and Roche Complete™ Protease Inhibitors with EDTA. The cell suspension is disrupted using a glass Potter-Elvehjem homogenizer fitted with a Teflon® pestle for 25 strokes. The homogenate is centrifuged at 4° C. at 1100×g for 10 minutes. The supernatant is collected and stored on ice while the pellets are resuspended in homogenization buffer and rehomogenized as described above. The homogenate is centrifuged at 1100×g for 10 minutes. The second supernatant is combined with the first supernatant and centrifuged at 35000×g for 1 hour at 4° C. The resulting membrane pellet is resuspended in homogenization buffer containing protease inhibitors at approximately 1 to 3 mg/mL, quick frozen in liquid nitrogen and stored as aliquots in a−80° C. freezer until use.
(§3) Method 2: Frozen cell pellets are lysed on ice in hypotonic buffer containing 50 mM Tris HCl, pH 7.5, 1 mM MgCl2, Roche Complete™ EDTA-free Protease Inhibitors and 25 units/ml DNAse I (Invitrogen). The cell suspension is disrupted using a glass Potter-Elvehjem homogenizer fitted with a Teflon® pestle for 20 to 25 strokes. The homogenate is centrifuged at 4° C. at 1800×g for 15 minutes. The supernatant is collected and stored on ice while the pellets are resuspended in homogenization buffer (without DNAse I) and rehomogenized as described above. The homogenate is centrifuged at 1800×g for 15 minutes. The second supernatant is combined with the first supernatant and centrifuged an additional time at 1800×g for 15 minutes. The overall supernatant is then centrifuged at 25000×g for 30 minutes at 4° C. The resulting membrane pellet is resuspended in homogenization buffer (without DNAse I) containing protease inhibitors at approximately 1 to 3 mg/mL and stored as aliquots in a−80° C. freezer until use.
The human Gcg receptor binding assays are performed using a Scintillation Proximity Assay (SPA) format with wheat germ agglutinin (WGA) beads (Perkin Elmer). The binding buffer contains 25 mM 4-(2-hydroxyethyl)-1-piperazineethanesulfonic acid (HEPES), pH 7.4, 2.5 mM CaCl2, 1 mM MgCl2, 0.1% (w/v) bacitracin (Research Products), 0.003% (w/v) Polyoxyethylenesorbitan monolaurate (TWEEN©-20), and Roche Complete™ Protease Inhibitors without EDTA. […] Plates are sealed and mixed on a plate shaker (setting 6) for 1 minute and read with a PerkinElmer Trilux MicroBeta© scintillation counter after 12 hours of incubation/settling time at room temperature.
(§4) Data are analyzed using four-parameter (curve maximum, curve minimum, IC50, Hill slope) nonlinear regression routines (Genedata Screener, version 12.0.4, Genedata AG, Basal, Switzerland). […] Values for Ki are reported as the geometric mean, with error expressed as the standard error of the mean (SEM) and n is equal to the number of independent replicates (determined in assays performed on different days). […] The Ki Ratio is a rapid indication of the apparent affinity of a peptide compared to the native control peptide. […] SEM is only calculated when n=2 or greater non-qualified results exist. Means are expressed as GeoMetric means with the standard error of the mean (SEM) and the number of replicates (n) indicated in parenthesis.

[2] = molecular target: T2, human GIP receptor (Homo sapiens, UniProt P48546); experiment: [125I]-GIP binding (SPA), human GIP receptor; settings: read-out: hGIPR Ki, nM (SEM, n)
T2 construct: expressed in transfected cells; crude membranes
T2 sequence (P48546 22-466): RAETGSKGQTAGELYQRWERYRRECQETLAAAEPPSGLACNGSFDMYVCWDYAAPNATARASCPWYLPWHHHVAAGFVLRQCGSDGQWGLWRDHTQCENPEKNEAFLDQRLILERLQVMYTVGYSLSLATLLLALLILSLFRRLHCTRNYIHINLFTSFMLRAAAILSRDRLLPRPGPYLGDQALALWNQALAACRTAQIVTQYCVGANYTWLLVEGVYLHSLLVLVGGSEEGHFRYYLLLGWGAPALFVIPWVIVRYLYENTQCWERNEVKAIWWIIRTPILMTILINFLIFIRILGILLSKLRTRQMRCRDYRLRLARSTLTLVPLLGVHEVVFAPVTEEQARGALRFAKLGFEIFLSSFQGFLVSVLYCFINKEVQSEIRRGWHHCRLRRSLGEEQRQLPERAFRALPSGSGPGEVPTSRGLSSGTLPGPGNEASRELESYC
Procedure: as §1, §2, §3
The binding buffer contains 25 mM HEPES, pH 7.4, 2.5 mM CaCl2, 1 mM MgCl2, 0.1% (w/v) bacitracin, 0.003% (w/v) TWEEN©-20, and Roche Complete™ Protease Inhibitors without EDTA. Peptides and GIP are thawed and 3 fold serially diluted in 100% DMSO (10 point concentration response curves). […] Plates are sealed and mixed on a plate shaker (setting 6) for 1 minute and read with a PerkinElmer Trilux MicroBeta© scintillation counter after 2.5 to 12 hours of incubation/settling time at room temperature.
as §4

[3] = molecular target: human GLP-1 receptor (GLP-1R) (Homo sapiens, UniProt P43220); experiment: cAMP pharmacological functional assay in presence of casein, hGLP-1R; format: cell-based; settings: HEK293 cells expressing hGLP-1R, 0.1% Casein, geometric mean; read-out: hGLP1R cAMP Rel EC50 nM (SEM, n)
Chain of human GLP-1 receptor (GLP-1R) (P43220 24-463): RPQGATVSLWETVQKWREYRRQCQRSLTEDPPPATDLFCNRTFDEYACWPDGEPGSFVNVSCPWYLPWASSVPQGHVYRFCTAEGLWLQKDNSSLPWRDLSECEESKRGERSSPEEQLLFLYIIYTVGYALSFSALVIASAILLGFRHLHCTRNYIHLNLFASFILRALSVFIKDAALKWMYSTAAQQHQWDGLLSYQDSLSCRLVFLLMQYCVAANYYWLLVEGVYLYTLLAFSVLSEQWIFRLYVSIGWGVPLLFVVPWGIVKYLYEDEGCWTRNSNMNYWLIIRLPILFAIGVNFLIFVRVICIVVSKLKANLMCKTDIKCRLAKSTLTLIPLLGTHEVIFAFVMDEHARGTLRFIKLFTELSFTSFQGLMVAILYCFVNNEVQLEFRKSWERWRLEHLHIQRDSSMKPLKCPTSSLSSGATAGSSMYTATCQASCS

[4] = molecular target: T3, gastric inhibitory peptide receptor (GIPR) (Homo sapiens, UniProt P48546); experiment: cAMP pharmacological functional assay in presence of casein, hGIPR; format: cell-based; settings: HEK293 cells expressing hGIPR, 0.1% Casein, geometric mean; read-out: hGIPR cAMP Rel EC50 nM (SEM, n)
T3 sequence (P48546 22-466): T2 sequence (P48546 22-466)

[5] = molecular target: human GLP-1R (Homo sapiens, UniProt P43220); experiment: [125I]-GLP-1 binding (SPA), human GLP-1 receptor; design: expressed in transfected cells; crude membranes; settings: read-out: hGLP1R Ki, (nM) (SEM, n)
Chain of human GLP-1R (P43220 24-463): as above
Procedure: as §1, §2, §3
The binding buffer contains 25 mM HEPES, pH 7.4, 2.5 mM CaCl2, 1 mM MgCl2, 0.1% (w/v) bacitracin, 0.003% (w/v) TWEEN©-20, and Roche Complete™ Protease Inhibitors without EDTA.
as §4

EC50 [3] | SMILES | Ki [1] | Ki [2] | EC50 [4] | Ki [5]
0.397 nM | CC[C@H](C)[C@H](NC(=O)[C@H](CC(C)C)NC(=O)[C@H](Cc1ccc(O)cc1)NC(=O)[C@H](CCC(=O)O)NC(=O)[C@@H](NC(=O)[C@H](Cc1ccccc1)NC(=O)[C@H](CC(=O)O)NC(=O)C(C)(C)NC(=O)[C@H](CCC(N)=O)NC(=O)[C@H](C)NC(=O)[C@H](CCCCNC(=O)COCCOCCNC(=O)COCCOCCNC(=O)CC[C@H](NC(=O)CCCCCCCCCCCCCCCCC(=O)O)C(=O)O)NC(=O)[C@H](CCCCN)NC(=O)[C@H](CC(=O)O)NC(=O)[C@H](CC(C)C)NC(=O)[C@H](CC(C)C)NC(=O)[C@@H](NC(=O)[C@H](CO)NC(=O)[C@H](Cc1ccc(O)cc1)NC(=O)[C@H](CC(=O)O)NC(=O)[C@H](CO)NC(=O)[C@@H](NC(=O)[C@H](Cc1ccccc1)NC(=O)[C@@H](NC(=O)CNC(=O)[C@H](CCC(=O)O)NC(=O)C(C)(C)NC(=O)[C@@H](N)Cc1ccc(O)cc1)[C@@H](C)O)[C@@H](C)O)[C@@H](C)CC)[C@@H](C)CC)C(=O)N[C@@H](CCC(=O)O)C(=O)NCC(=O)NCC(=O)N1CCC[C@H]1C(=O)N[C@@H](CO)C(=O)N[C@@H](CO)C(=O)NCC(N)=O [Example 320] (H-Y[Aib]EGTFTSDYSILLDKK([AEEA-AEEA-γGlu-C18 diacid])AQ[Aib]DFIEYLIEGGPSSG-NH2; N-terminus assumed) | > 1040 nM | 0.136 nM | 0.161 nM | 5.17 nM
0.128 nM | CC[C@H](C)[C@H](NC(=O)[C@H](CC(C)C)NC(=O)[C@H](Cc1ccc(O)cc1)NC(=O)[C@H](CCC(=O)O)NC(=O)[C@@H](NC(=O)[C@H](Cc1ccccc1)NC(=O)[C@H](CCC(=O)O)NC(=O)C(C)(C)NC(=O)[C@H](CCC(N)=O)NC(=O)[C@H](C)NC(=O)[C@H](CCCCNC(=O)COCCOCCNC(=O)COCCOCCNC(=O)CC[C@H](NC(=O)CCCCCCCCCCCCCCCCC(=O)O)C(=O)O)NC(=O)[C@H](CCCCN)NC(=O)[C@H](CC(=O)O)NC(=O)[C@H](CC(C)C)NC(=O)[C@H](CC(C)C)NC(=O)[C@@H](NC(=O)[C@H](CO)NC(=O)[C@H](Cc1ccc(O)cc1)NC(=O)[C@H](CC(=O)O)NC(=O)[C@H](CO)NC(=O)[C@@H](NC(=O)[C@H](Cc1ccccc1)NC(=O)[C@@H](NC(=O)CNC(=O)[C@H](CCC(=O)O)NC(=O)C(C)(C)NC(=O)[C@@H](N)Cc1ccc(O)cc1)[C@@H](C)O)[C@@H](C)O)[C@@H](C)CC)[C@@H](C)CC)C(=O)N[C@@H](CCC(=O)O)C(=O)NCC(=O)NCC(=O)N1CCC[C@H]1C(=O)N[C@@H](CO)C(=O)N[C@@H](CO)C(=O)NCC(N)=O [Example 270] (H-Y[Aib]EGTFTSDYSILLDKK([AEEA-AEEA-γGlu-C18 diacid])AQ[Aib]EFIEYLIEGGPSSG-NH2; N-terminus assumed) | > 1190 nM | 0.117 nM | 0.328 nM | 8.27 nM
 | CC[C@H](C)[C@H](NC(=O)[C@H](CC(C)C)NC(=O)[C@H](Cc1ccc(O)cc1)NC(=O)[C@@H](CCC(=O)O)NC(=O)[C@@H](NC(=O)[C@H](Cc1ccccc1)NC(=O)[C@H](CCC(=O)O)NC(=O)C(C)(C)NC(=O)[C@H](CCC(N)=O)NC(=O)[C@H](C)NC(=O)[C@H](CCCCNC(=O)COCCOCCNC(=O)COCCOCCNC(=O)CC[C@H](NC(=O)CCCCCCCCCCCCCCCCCCC(=O)O)C(=O)O)NC(=O)[C@H](CCC(=O)O)NC(=O)[C@H](CC(=O)O)NC(=O)[C@H](CC(C)C)NC(=O)[C@](C)(CC(C)C)NC(=O)[C@@H](NC(=O)[C@H](CO)NC(=O)[C@H](CC(C)C)NC(=O)[C@H](CC(=O)O)NC(=O)[C@H](CO)NC(=O)[C@@H](NC(=O)[C@](C)(Cc1ccccc1F)NC(=O)[C@@H](NC(=O)CNC(=O)[C@H](CCC(=O)O)NC(=O)C(C)(C)NC(=O)[C@@H](N)Cc1ccc(O)cc1)[C@@H](C)O)[C@@H](C)O)[C@@H](C)CC)[C@@H](C)CC)C(=O)N[C@@H](CCC(=O)O)C(=O)NCC(=O)NCC(=O)N1CCC[C@H]1C(=O)N[C@@H](CO)C(=O)N[C@@H](CO)C(=O)NCC(=O)N[C@@H](C)C(=O)N1CCC[C@H]1C(=O)N1CCC[C@H]1C(=O)N1CCC[C@H]1C(=O)N[C@@H](CO)C(N)=O [Example 183] (H-Y[Aib]EGT[αMePhe(2-F)]TSDLSI[αMeL]LDEK([AEEA-AEEA-γGlu-C20 diacid])AQ[Aib]EFI[dE]YLIEGGPSSGAPPPS-NH2) | 304 nM | 0.0869 nM | 0.0615 nM | 4.11 nM
 | CC[C@H](C)[C@H](NC(=O)[C@H](CC(C)C)NC(=O)[C@H](Cc1ccc(O)cc1)NC(=O)[C@@H](CCC(=O)O)NC(=O)[C@@H](NC(=O)[C@H](Cc1ccccc1)NC(=O)[C@H](CCC(=O)O)NC(=O)C(C)(C)NC(=O)[C@H](CCC(N)=O)NC(=O)[C@H](C)NC(=O)[C@H](CCCCNC(=O)COCCOCCNC(=O)COCCOCCNC(=O)CC[C@H](NC(=O)CCCCCCCCCCCCCCCCCCC(=O)O)C(=O)O)NC(=O)[C@H](CCC(=O)O)NC(=O)[C@H](CC(=O)O)NC(=O)[C@H](CC(C)C)NC(=O)[C@](C)(CC(C)C)NC(=O)[C@@H](NC(=O)[C@H](CO)NC(=O)[C@H](Cc1ccncc1)NC(=O)[C@H](CC(=O)O)NC(=O)[C@H](CO)NC(=O)[C@@H](NC(=O)[C@](C)(Cc1ccccc1F)NC(=O)[C@@H](NC(=O)CNC(=O)[C@H](CCC(=O)O)NC(=O)C(C)(C)NC(=O)[C@@H](N)Cc1ccc(O)cc1)[C@@H](C)O)[C@@H](C)O)[C@@H](C)CC)[C@@H](C)CC)C(=O)N[C@@H](CCC(=O)O)C(=O)NCC(=O)NCC(=O)N1CCC[C@H]1C(=O)N[C@@H](CO)C(=O)N[C@@H](CO)C(=O)NCC(=O)N[C@@H](C)C(=O)N1CCC[C@H]1C(=O)N1CCC[C@H]1C(=O)N1CCC[C@H]1C(=O)N[C@@H](CO)C(N)=O [Example 182] (H-Y[Aib]EGT[αMePhe(2-F)]TSD[4Pal]SI[αMeL]LDEK([AEEA-AEEA-γGlu-C20 diacid])AQ[Aib]EFI[dE]YLIEGGPSSGAPPPS-NH2; N-terminus assumed) | 565 nM | 0.0669 nM | 0.0442 nM | 4.64 nM
